In patent publication US10925887B2, “Steroid saponins with anti-cancer activity” (Oncology Research International Limited, priority 2017, dated 2021):

Key:
Assay type in all cases: cell-based
A549 = test: CellTiter-Blue cell growth inhibition assay, A549; details: Homo sapiens, A549, 48 h
Description: (§1) Duplicate experiments were performed using the CellTiter-Blue® Cell Viability Assay to determine IC50 values for Compound A, Compound B and Compound C against each cell line. The general methodology for preparation of test articles described in Example 6 was used. The test compounds compound A, compound C disodium salt and compound B ½ maleate salt were initially formulated as 100× stock solutions at a concentration of 10 mg/mL in the appropriate diluents (DMSO for compounds). These stock solutions were then further diluted in cell culture medium to achieve lower concentrations of 100, 50, 25, 12.5, 6.25 and 3.125, 1.563, 0.781, 0.390 and 0.195 μM of active component. The specific cancer cells were A549, HCT 116, MCF-7 and MIA PaCa-2.
(§2) Human cancer cell types were: HTC-116 (colon); A549 (Lung); HT29 (colon); MCF-7; Mia PaCa-2 (pancreas)
(§3) Cells were seeded in duplicate at 3-4,000 per microtitre well in 50 μl of cell culture medium . After 24 hours, 50 μL of test article or vehicle control prepared in medium at 2× required concentration were added to each well. Cancer cells were allowed to grow in the presence of drug for 48 hours before cell growth relative to untreated control wells was determined with CellTiter-Blue® Cell Viability Assay.
(§4) IC50 values were calculated using Prism 6 for Mac OS X using a nonlinear regression (log(inhibitor) vs. response—Variable slope (four parameters)

MCF-7 = test: CellTiter-Blue cell growth inhibition assay, MCF-7; details: Homo sapiens, MCF7, 48 h
Description: as §1, §2, §3, §4

PC-3 = test: CellTiter-Blue cell growth inhibition assay, PC-3; details: Homo sapiens, PC-3, 48 h
MIA PaCa-2 = test: CellTiter-Blue cell growth inhibition assay, MIA PaCa-2; details: Homo sapiens, MIA PaCa-2, 48 h
Description: as §1, §2, §3, §4

HCT 116 = test: CellTiter-Blue cell growth inhibition assay, HCT 116; details: Homo sapiens, HCT-116, 48 h
Description: as §1, §2, §3, §4

[1] = tested on: washed human erythrocytes; test: in vitro haemolysis assay; details: for HD50 (50% haemolytic dose): washed human erythrocytes, 3 hours at 37° C.
Description: Haemolysis is a clinical condition where the red cell membrane is irreversibly damaged causing the release of its haemoglobin content. The in vitro haemolysis assay is a simple test to determine the haemolytic potential of a test substance on isolated and washed red blood cells.
In this example three compounds identified as compound A, compound C disodium salt and compound B ½ maleate salt and Saponin from Quillaja bark (S4521) were tested for haemolytic potential using washed human erythrocytes. The compounds were tested over a dose curve with a maximum concentration of […] and a lowest concentration of […]. The concentration range is […].
Briefly, whole blood (40 mL) was collected from a single human volunteer into multiple EDT vacutainer tubes. The red blood cells (RBC) were washed and isolated from plasma components by three centrifugations at 3000 rpm for 5 minutes in isotonic 0.9% sodium chloride. After the final wash, 0.1 mL volumes of red blood cells were added to each treatment tube.
The test compounds compound A, compound C disodium salt and compound B % maleate salt and the reference article (Saponin S4521) were initially formulated as 100× stock solutions at a concentration of 10 mg/mL in the appropriate diluents (DMSO for compounds, 0.9% NaCl for Saponin S4521). These stock solutions were then further diluted 1:100 in 0.9% NaCl to prepare the highest concentration of […] in 1% DMSO/NaCl. The highest concentration solutions were further diluted serially 1:2 in 1% DMSONaC1 to achieve lower concentrations of 50, 25, 12.5, 6.25, 3.125, 1.562 and 0.781 pg/ml of active component.
The positive control article (hypertonic solution of […]) was formulated by weighing 2.92 g NaCl in 10 mL MilliQ water. The negative control article (isotonic solution of 0.154M NaCl) was formulated on the day of use by dissolving 0.09 g NaCl into 10 mL MilliQ water. The vehicle used to dilute the test articles, 1% DMSO/NaCl, was used as the reagent blank in the assay.
Tubes containing cells and treatments were incubated at 37° C. with gentle agitation in an orbital mixer for 3 hours. At completion of the incubation, tubes were centrifuged at 3000 rpm for 5 minutes and 200 ptL aliquots of supernatant from each tube were transferred to a 96-well microplate for measurement of absorbance at 535 nm. A layout for the 96-Nell microplate is presented in Appendix 1. A 1% DMSO/NaCl vehicle in the absence of blood was used as the reagent blank in the assay.
Mean values for the negative (0.154M NaCl), positive (5M NaCl) and blank triplicate wells were determined. These were then used to calculate the % haemolysis for each sample according to the following formula: […]
Calculations of 50% haemolytic dose (HD50) was performed by non-linear regression analyses using a log(agonist) vs normalized response variable slope curve fit on GraphPad Prism for Mac OS X (Version 5.0c, GraphPad Software, California, USA).

[2] = MIA PaCa-2, Average ± SEM, 48 hours
[3] = MIA PaCa-2, Experiment 1, 48 hours
[4] = MIA PaCa-2, Experiment 2, 48 hours
[5] = HCT 116, Average ± SEM, 48 hours
[6] = HCT 116, Experiment 1, 48 hours
[7] = HCT 116, Experiment 2, 48 hours

Compound | IC50 (A549; A549, Average ± SEM, 48 hours) [µM] | IC50 (A549; A549, Experiment 1, 48 hours) [µM] | IC50 (A549; A549, Experiment 2, 48 hours) [µM] | IC50 (MCF-7; MCF-7, Average ± SEM, 48 hours) [µM] | IC50 (MCF-7; MCF-7, Experiment 1, 48 hours) [µM] | IC50 (MCF-7; MCF-7, Experiment 2, 48 hours) [µM] | IC50 (PC-3; PC-3, Average ± SEM, 48 hours) [µM] | IC50 (PC-3; PC-3, Experiment 1, 48 hours) [µM] | IC50 (PC-3; PC-3, Experiment 2, 48 hours) [µM] | IC50 (MIA PaCa-2; [2]) [µM] | IC50 (MIA PaCa-2; [3]) [µM] | IC50 (MIA PaCa-2; [4]) [µM] | IC50 (HCT 116; [5]) [µM] | IC50 (HCT 116; [6]) [µM] | IC50 (HCT 116; [7]) [µM] | percent haemolysis ([1]; concentration 0.781 μg/ml) [%] | percent haemolysis ([1]; concentration 1.562 μg/ml) [%] | percent haemolysis ([1]; concentration 3.125 μg/ml) [%] | percent haemolysis ([1]; concentration 6.25 μg/ml) [%] | percent haemolysis ([1]; concentration 12.5 μg/ml) [%] | also measured
CC1O[C@@H](OC2C(O)[C@H](O)C(CO)O[C@H]2O[C@H]2CC[C@@]3(C)C(=CC[C@H]4[C@@H]5C[C@@H]6O[C@]7(CC[C@@H](C)CO7)[C@@H](C)[C@@H]6[C@@]5(C)CC[C@@H]43)C2)C(O)C(O)[C@H]1O (stereo partly drawn) [Compound A, diosgenyl α-L-rhamnopyranosyl-(1→2)-β-D-glucopyranoside, reference compound] | 4.17 ± 0.57 | 4.74 | 3.6 | 7.65 ± 0.27 | 7.91 | 7.38 | 6.14 ± 0.29 | 6.42 | 5.85 | 5.63 ± 0.55 | 6.17 | 5.08 | 5.1 ± 0.08 | 5.17 | 5.02 | −0.3 | 0.5 | −0.1 | 3.2 | 13.4 | percent haemolysis ([1]; concentration 25 μg/ml): 36.0%; percent haemolysis ([1]; concentration 50 μg/ml): 86.7%; percent haemolysis ([1]; concentration 100 μg/ml): 103.2%; HD50 (50% haemolytic dose) [1]: 31.57 µg/mL
CC1O[C@@H](OC2C(O)[C@H](O)C(COC(=O)[C@@H](N)C(C)C)O[C@H]2O[C@H]2CC[C@@]3(C)C(=CC[C@H]4[C@@H]5C[C@@H]6O[C@]7(CC[C@@H](C)CO7)[C@@H](C)[C@@H]6[C@@]5(C)CC[C@@H]43)C2)C(O)C(O)[C@H]1O (stereo partly drawn) [Compound B] | 10.2 ± 0.31 | 9.86 | 10.5 | 15 ± 0.32 | 14.7 | 15.3 | 11.7 ± 0.7 | 12.4 | 11 | 9.39 ± 1.77 | 11.2 | 7.62 | 12.4 ± 0.72 | 11.7 | 13.1 | – | – | – | – | – | –
CC1O[C@@H](OC2C(O)[C@H](O)C(COP(=O)([O-])O)O[C@H]2O[C@H]2CC[C@@]3(C)C(=CC[C@H]4[C@@H]5C[C@@H]6O[C@]7(CC[C@@H](C)CO7)[C@@H](C)[C@@H]6[C@@]5(C)CC[C@@H]43)C2)C(O)C(O)[C@H]1O.[Na+] (stereo partly drawn) [Compound C disodium salt] | – | – | – | – | – | – | – | – | – | – | – | – | – | – | – | 1.0 | 1.9 | 0.5 | 1.6 | 0.5 | percent haemolysis ([1]; concentration 25 μg/ml): 1.8%; percent haemolysis ([1]; concentration 50 μg/ml): 2.9%; percent haemolysis ([1]; concentration 100 μg/ml): 51.9%; HD50 (50% haemolytic dose) [1]: 145.70 µg/mL
CC1O[C@@H](OC2C(O)[C@H](O)C(COP(=O)(O)O)O[C@H]2O[C@H]2CC[C@@]3(C)C(=CC[C@H]4[C@@H]5C[C@@H]6O[C@]7(CC[C@@H](C)CO7)[C@@H](C)[C@@H]6[C@@]5(C)CC[C@@H]43)C2)C(O)C(O)[C@H]1O (stereo partly drawn) [Compound C] | 2 ± 0.47 | 2.46 | 1.53 | 4.17 ± 1.29 | 5.45 | 2.88 | 3.25 ± 1.07 | 4.32 | 2.18 | 3.04 ± 0.49 | 3.52 | 2.55 | 3.04 ± 1.05 | 4.08 | 1.99 | – | – | – | – | – | –
